Results: patent publication US20050203063A1, “Proteasome pathway inhibitors and related methods” (priority 2003, published 2005)

Assays:
26S proteasomes [1] = target: T1, 26S proteasomes; experiment: Deubiquitination of UbSic1 by epoxomicin-treated purified 26S proteasomes; type: biochemical, S. cerevisiae; settings: titration, epoxomicin-treated proteasomes
T1 construct: IC50, deubiquitination of UbSic1; other: titration, epoxomicin-treated proteasomes; other: 5 μM C92
Description: (§1) FIG. 2. […] (A) Degradation of UbSic1. Purified 26S proteasomes were preincubated in the presence or absence of test compounds. UbSic1 was then added, and degradation assayed as described (6). Py mock refers to the pyridine solvent in which C23 was dissolved which was marginally inhibitory, unlike the 50% DMSO vehicle used for other test compounds. (B) Deubiquitination of UbSic1. […] UbSic1 was then added, and deubiquitination was assayed as described (6). (C) Titration curve with varying concentrations of C92 to determine half-maximal inhibition of deubiquitination. (D) C92 inhibits binding of UbSic1 to 26S proteasomes. Purified 26S proteasomes immobilized on anti-Flag beads were incubated with UbSic1 in the presence or absence of C92 as described (6). Following binding, beads were washed and analyzed by immunoblotting with anti-Sic1 polyclonal serum. (E) Binding of UbSic1 to the polyUb binding proteins Rpn10 and Rad23 is inhibited by C92. Recombinant Gst-Rpn10 and Gst-Rad23 (1 μg each) were immobilized on glutathione sepharose beads and then incubated with UbSic1 in the presence or absence of C92. Following binding, beads were washed and analyzed by immunoblotting. (F) C92 interacts with multiUb chains. Equivalent amounts (5 μg) of purified Gst, Gst-fusion protein or multiUb chains were incubated with C92 or C1 before being loaded on a 5% native polyacryamide gel. Electrophoresis was performed as described (33). (G) C92 and C59 interact specifically with K48-linked Ub on native gels. Ub (16 μM), K48-linked diUb (8 μM), or tetraUb chains (8 μM) were preincubated with a two fold-molar excess (monoUb and diUb), or equivalent amounts (tetraUb) of test compounds before being resolved on native gels as in (G). Tetra K29Ub, K48Ub, and K63Ub refer to tetraubiquitin chains wherein the ubiquitins are linked via K29, K48, or K63.
FIG. 5. […] Assays were performed and evaluated as summarized in the legend to FIG. 2B. The metal chelating reagent phenanthroline is designated as “P”, and “Py” refers to the pyridine solvent that is used as the solvent for C23. (B) Titration curve for C59. (C) Inhibition of binding of ubiquitin conjugates to Gst-Rpn10 by C92 and C59, but not other compounds. The experiment was performed as described for FIG. 2E.
(§2) 26S proteasomes were purified from S. cerevisiae cells expressing a Flag-tagged proteasomal subunit (PRE1) essentially as described (28).
Reactions were processed as above.

Gst-Rpn10 = target: T2, Gst-Rpn10 (Saccharomyces cerevisiae, UniProt P38886); experiment: Binding of UbSic1 to Gst-Rpn10 on glutathione sepharose beads
T2 construct: made in house
T2 sequence (P38886 1-268): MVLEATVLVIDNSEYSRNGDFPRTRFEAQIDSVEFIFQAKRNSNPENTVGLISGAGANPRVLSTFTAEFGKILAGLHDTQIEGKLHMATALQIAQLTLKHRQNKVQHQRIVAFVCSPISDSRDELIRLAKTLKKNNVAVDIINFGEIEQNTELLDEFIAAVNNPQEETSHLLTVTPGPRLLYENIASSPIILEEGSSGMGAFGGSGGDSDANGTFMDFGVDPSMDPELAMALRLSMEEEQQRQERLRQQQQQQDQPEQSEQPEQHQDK
Description: as §1, with “(F) C92 interacts with multiUb chains. Equivalent amounts (5 μg) of purified Gst, Gst-fusion protein or multiUb chains were incubated with C92 or C1 before being loaded on a 5% native polyacryamide gel. Electrophoresis was performed as described (33). (G) C92 and C59 interact specifically with K48-linked Ub on native gels. Ub (16 μM), K48-linked diUb (8 μM), or tetraUb chains (8 μM) were preincubated with a two fold-molar excess (monoUb and diUb), or equivalent amounts (tetraUb) of test compounds before being resolved on native gels as in (G). Tetra K29Ub, K48Ub, and K63Ub refer to tetraubiquitin chains wherein the ubiquitins are linked via K29, K48, or K63.” left out
FIG. 5. […] Assays were performed and evaluated as summarized in the legend to FIG. 2B. […]
Recombinant Gst-Rpn10 and Gst-Rad23 were immobilized on glutathione sepharose beads. […] Aliquots were analyzed by immunoblotting.

[2] = target: T3, K29-linked ubiquitin chains (Homo sapiens, UniProt P0CG47); experiment: Native gel mobility shift of ubiquitin chains; type: binding; settings: tetraUb, equivalent amount of compound
T3 construct: tetraubiquitin chains wherein the ubiquitins are linked via K29, K48, or K63
Description: as §1
(§3) Selective recognition of the multiubiquitin chain by the 26S proteasome constitutes the first step in UbSic1 degradation (9). Applicants therefore assayed the binding of UbSic1 to 26S proteasomes pre-treated with C92. […] Previous work by applicants has shown that multiubiquitin chain receptors Rad23 and Rpn10 serve a redundant role in sustaining UbSic1 degradation in vitro and in vivo (14). In the absence of the ubiquitin-binding activity of Rpn10, UbSic1 is not recruited, deubiquitinated, or degraded by purified 26S proteasomes. Thus, to further establish the mechanism by which C92 inhibited binding of UbSic1 conjugates to the proteasome, applicants tested whether C92 could interfere with binding of UbSic1 to recombinant Rpn10 and Rad23. […] To distinguish whether C92 inhibited proteolysis by binding to proteasome receptor proteins or to the Ub chain on Sic 1, applicants exploited the negative charge of C92 to determine whether compound binding induced a mobility shift of the target proteins on native gels. C92 was pre-incubated with recombinant Rpn10, Rad23, or a mixture of Ub chains containing 2-7 Ub molecules. […] Remarkably, the binding of C92 and C59 to ubiquitin chains was exquisitely linkage specific. Ubiquitin molecules can be linked to each other in vivo through different internal lysines, including K29, K48, and K63(19). The K48-linked chain is the principal targeting signal in proteolysis whereas K63-linked chains are implicated in enzyme regulation; no physiological function for K29-linked chains has yet been discovered (20).

[3] = target: T4, K48-linked ubiquitin chains (Homo sapiens, UniProt P0CG47); experiment: Native gel mobility shift of ubiquitin chains; type: binding; settings: for native gel mobility of K48-linked ubiquitin chains: diUb with two fold-molar excess, tetraUb with equivalent amount of compound
T4 construct: a mixture of Ub chains containing 2-7 Ub molecules
Description: as §1, §3

[4] = target: T5, K63-linked ubiquitin chains (Homo sapiens, UniProt P0CG47); experiment: Native gel mobility shift of ubiquitin chains; type: binding; settings: tetraUb, equivalent amount of compound
T5 construct: tetraubiquitin chains wherein the ubiquitins are linked via K29, K48, or K63
Description: as §1, §3

26S proteasomes [5] = target: T6, 26S proteasomes (Saccharomyces cerevisiae, UniProt P38886+P43588); experiment: 26S proteasome integrity on native gel (Coomassie Blue); type: biochemical; settings: concentrations that inhibit ubiquitin-dependent proteolysis
T6 construct: 26S proteasomes were purified from S. cerevisiae cells expressing a Flag-tagged proteasomal subunit (PRE1); made in house; host or cells: S. cerevisiae cells expressing Flag-tagged PRE1
Description: FIG. 6. […] (A) Purified 26S proteasomes were preincubated with test compounds before being resolved on a native gel. Following electrophoresis, the gel was stained with Coomassie Blue. […] Same as (A), except that following electrophoresis, the gel was incubated with fluorescent substrate to determine peptidase activity, which was visualized using a UV transilluminator (9). […] (C) Untreated 26S proteasomes were resolved on a native gel. Following electrophoresis, the gel was incubated with the peptidase substrate in the presence of ubistatin.
as §2

T6 sequence (P43588 whole entry, one chain of several): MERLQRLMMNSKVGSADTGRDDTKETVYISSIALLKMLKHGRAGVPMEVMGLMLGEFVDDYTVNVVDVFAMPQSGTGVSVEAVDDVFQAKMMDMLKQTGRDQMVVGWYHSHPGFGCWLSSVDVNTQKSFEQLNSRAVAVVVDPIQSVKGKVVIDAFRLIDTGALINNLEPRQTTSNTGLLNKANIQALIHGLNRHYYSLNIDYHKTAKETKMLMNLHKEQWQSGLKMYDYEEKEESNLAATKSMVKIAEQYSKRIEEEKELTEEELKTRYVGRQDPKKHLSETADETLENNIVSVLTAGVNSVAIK

SMILES	IC50 (26S proteasomes [1])	inhibition of binding of UbSic1 to Rpn10 (Gst-Rpn10)	native gel mobility of K29-linked chains [2]	native gel mobility of K48-linked ubiquitin chains [3]	native gel mobility of multiUb chains ([3]; mixture of Ub chains containing 2-7 Ub molecules)	native gel mobility of K63-linked chains [4]	effect on 26S proteasome integrity / assembly (26S proteasomes [5])
O=C(Nc1ccc(/C=C/c2ccc(NC(=O)c3cc(S(=O)(=O)O)c4cccnc4c3O)cc2S(=O)(=O)O)c(S(=O)(=O)O)c1)c1cc(S(=O)(=O)O)c2cccnc2c1O [Compound 92]	~400 nM	abolished binding	little or no effect	efficiently shifted	bound Ub chains	little or no effect	without affecting
O=S(=O)(O)c1ccc2cc3c(cc2c1)NN(c1ccc(/C=C/c2ccc(N4Nc5cc6ccc(S(=O)(=O)O)cc6cc5N4)cc2S(=O)(=O)O)c(S(=O)(=O)O)c1)N3 [Compound 59]	1000 nM	abrogated binding	little or no effect	efficiently shifted	–	little or no effect	without affecting
